Assay results taken from patent US12552790B2, “Positive modulators of the muscarinic acetylcholine receptor M4” (Vanderbilt University, priority 2023, dated 2026).

Tests used:
[1] = target: T1, Human M2 (Homo sapiens, UniProt P08172); experiment: M2 cell-based functional assay, calcium mobilization (selectivity); settings: for Emax at 30 µM: % ACh maximum at 30 μM; for EC50 / Human M2 EC50: M2 cell-based functional assay, calcium flux
T1 construct: expressed in transfected cells; host or cells: CHO-K1
T1 sequence (P08172 1-466): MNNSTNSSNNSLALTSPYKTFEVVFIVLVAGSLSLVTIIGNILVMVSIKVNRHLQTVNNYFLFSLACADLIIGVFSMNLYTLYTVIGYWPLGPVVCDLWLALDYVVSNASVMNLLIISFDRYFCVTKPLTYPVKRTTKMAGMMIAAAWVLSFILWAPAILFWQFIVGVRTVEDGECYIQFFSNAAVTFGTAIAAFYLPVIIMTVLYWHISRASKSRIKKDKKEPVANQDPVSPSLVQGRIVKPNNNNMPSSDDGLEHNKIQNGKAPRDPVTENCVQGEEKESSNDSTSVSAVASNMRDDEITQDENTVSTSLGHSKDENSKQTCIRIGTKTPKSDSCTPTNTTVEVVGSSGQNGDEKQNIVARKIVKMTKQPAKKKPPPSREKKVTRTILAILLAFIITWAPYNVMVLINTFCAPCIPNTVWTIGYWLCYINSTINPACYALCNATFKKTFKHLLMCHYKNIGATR
Procedure: (§1) The high throughput assay was employed to measure receptor-induced mobilization of intracellular calcium to determine compound activity. Test compound was added to cells expressing the muscarinic receptors that were loaded with calcium sensitive fluorescent dye. After a ˜2.5 minute incubation period, a submaximal (EC20) concentration of acetylcholine was added, and the response measured. This kinetic assay allows for simultaneous screening and potency determination of multiple pharmacological modes of action including agonist and potentiator activity. CHO-K1 cells stably expressing muscarinic receptors were plated in growth medium lacking G418 and hygromycin at 15,000 cells/20 μL/well in Greiner 384-well black-walled, tissue culture (TC)-treated, clear-bottom plates (Greiner Bio-One). Cells were incubated overnight at 37° C. and 5% CO2. The next day, calcium assay buffer (Hank's balanced salt solution (HBSS), 20 mM HEPES, 2.5 mM Probenecid, 4.16 mM sodium bicarbonate (Sigma-Aldrich, St. Louis, MO)) was prepared to dilute compounds, agonists, and Fluo-4-acetomethoxyester (Fluo-4-AM), fluorescent calcium indicator dye. Compounds were serially diluted 1:3 into 10 point concentration response curves in DMSO using the Bravo Liquid Handler (Agilent, Santa Clara, CA), transferred to a 384 well daughter plates using an Echo acoustic liquid handler (Beckman Coulter, Indianapolis, Indiana), and diluted in assay Buffer to a 2× final concentration. The agonist plates were prepared using acetylcholine (ACh, Sigma-Aldrich, St. Louis, MO) concentrations for the EC20 and ECMAX responses by diluting in assay buffer to a 5× final concentration. The 2× dye solution (2.3 μM) was prepared by mixing a 2.3 mM Fluo-4-AM stock in DMSO with 10% (w/v) pluronic acid F-127 in a 1:1 ratio in assay buffer. Using a microplate washer (BioTek, Winooski, VT), cells were washed with assay buffer for 3 times to remove medium. After the final wash, 20 μL of assay buffer remained in the cell plates. Immediately, 20 μL of the 2× dye solution (final 1.15 μM) was added to each well of the cell plate using a Multidrop Combi dispenser (Thermo Fisher, Waltham, MA). After cells were incubated with the dye solutions for 45 min at 37° C. in the presence of 5% CO2, the dye solutions were removed and replaced with assay buffer using a microplate washer, leaving 20 μL of assay buffer in the cell plate.
The prepared compound, agonist, and cell plates were placed inside the Functional Drug Screening System uCell (FDSS uCell, Hamamatsu, Japan) to measure the calcium flux. The triple add protocol was used to measure Ca kinetics; Compound, ACh for EC20, and ACh for EC80 adds in an order. Briefly, after establishment of a fluorescence baseline for 2 seconds (excitation, 480 nm; emission, 530 nm), first add occurred by adding 20 μL of test compound to the cells, and the response was measured for 140 seconds. This is followed by second add; 10 μL (5×) of an EC20 concentration of ACh agonist was added to the cells, and the response of the cells was measured for 125 seconds. Immediately, the third add occurred by adding […] (5×) of an EC80 concentration of ACh and the response of the cells was measured for 90 seconds. Acetylcholine-mediated maximum response (ECmax) was measured by adding 1 mM ACh as third add in the control wells. DMSO vehicle was added to the control wells in the first add for assessing ACh EC20, EC80, and ECmax responses. Calcium fluorescence was recorded as fold over basal fluorescence and raw data were normalized to the maximal response to ACh agonist. Agonist activity was analyzed as a concentration-dependent increase in calcium mobilization upon compound addition. Positive allosteric modulator activity was analyzed as a concentration-dependent increase in the EC20 acetylcholine response. Antagonist activity was analyzed as a concentration-dependent decrease in the EC80 acetylcholine response. […]

[2] = target: T2, Human M4 (Homo sapiens, UniProt P08173); experiment: M4 cell-based functional assay, calcium mobilization, potentiation of ACh EC20; settings: for Emax at 30 µM: % ACh maximum at 30 μM; for EC50: CHO-K1 hM4-Gqi5 cells, calcium flux, ACh EC20
T2 construct: expressed in transfected cells
T2 sequence (P08173 1-479): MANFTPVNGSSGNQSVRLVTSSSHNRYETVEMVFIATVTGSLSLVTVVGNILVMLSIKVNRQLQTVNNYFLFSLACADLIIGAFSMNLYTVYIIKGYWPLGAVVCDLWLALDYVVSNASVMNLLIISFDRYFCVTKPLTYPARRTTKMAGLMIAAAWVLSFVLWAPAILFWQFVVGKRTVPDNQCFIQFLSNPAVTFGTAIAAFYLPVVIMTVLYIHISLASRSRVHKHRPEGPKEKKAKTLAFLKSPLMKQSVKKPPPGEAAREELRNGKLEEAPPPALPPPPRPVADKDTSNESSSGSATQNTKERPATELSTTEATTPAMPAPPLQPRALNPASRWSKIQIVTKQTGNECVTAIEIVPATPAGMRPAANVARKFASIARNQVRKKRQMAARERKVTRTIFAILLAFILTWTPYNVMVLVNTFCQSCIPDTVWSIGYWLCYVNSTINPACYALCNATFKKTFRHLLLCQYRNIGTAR
Procedure: Human and rat M4 cDNAs, along with the chimeric G protein Gqi5, were transfected into Chinese hamster ovary (CHO-K1) cells purchased from the American Type Culture Collection using Lipofectamine2000. The transfected cells were subjected to selection antbiotic treatment to generate stable cell lines; G418 sulfate (1 mg/ml) for selecting M4 expressing cells and Hygromycin B (500 μg/mL) for selecting Gqi5 expressing cells. The resulting polyclones were further screened to obtain monoclones of hM4-Gqi5 and rM4-Gqi5 for compound screening assay. Stable monoclone cells were maintained in Ham's F-12 medium containing 10% heat-inactivated fetal bovine serum (FBS), 1× Antibiotic/Antimycotic, 20 mM HEPES, 500 μg/mL G418 sulfate, and 200 μg/mL Hygromycin B in 37° C. humidified incubators in the presence of 5% CO2.
as §1
The prepared compound, agonist, and cell plates were placed inside the Functional Drug Screening System uCell (FDSS uCell, Hamamatsu, Japan) to measure the calcium flux. The triple add protocol was used to measure Ca kinetics; Compound, ACh for EC20, and ACh for EC80 adds in an order. Briefly, after establishment of a fluorescence baseline for 2 seconds (excitation, 480 nm; emission, 530 nm), first add occurred by adding 20 μL of test compound to the cells, and the response was measured for 140 seconds. This is followed by second add; 10 μL (5×) of an EC20 concentration of ACh agonist was added to the cells, and the response of the cells was measured for 125 seconds. […]

| Compound | Emax at 30 µM [1] [%] | EC50 [1] [nM] | Emax at 30 µM [2] [%] | EC50 [2] [nM] | Human M2 EC50 [1] |
| --- | --- | --- | --- | --- | --- |
| [2H]C1(Oc2ccc3c(c2)OC([2H])([2H])C([2H])([2H])O3)CCN(c2nc3c(cc2C)C(=O)NC3)CC1 [Compound 1, 2-(4-((2,3-dihydrobenzo[b][1,4]dioxin-6-yl-2,2,3,3-d4)oxy)piperidin-1-yl-4-d)-3-methyl-6,7-dihydro-5H-pyrrolo[3,4-b]pyridin-5-one] | 69 | 346 | 108 | 3 |  |
| [2H]C1([2H])Oc2ccc(OC3CCN(c4nc5nn(C)c(=O)n5c5c4CCC5)CC3)cc2OC1([2H])[2H] [Compound A14, 5-(4-((2,3-dihydrobenzo[b][1,4]dioxin-6-yl-2,2,3,3-d4)oxy)piperidin-1-yl)-2-methyl-2,6,7,8-tetrahydro-1H-cyclopenta[e][1,2,4]triazolo[4,3-a]pyrimidin-1-one] | 60 | 2230 | 84 | 3 |  |
| [2H]C1([2H])Oc2ccc(OC3CCN(c4nc5nn(C(C)COC)c(=O)n5cc4C)CC3)cc2OC1([2H])[2H] (stereo not shown) [Compound A7, 7-(4-((2,3-dihydrobenzo[b][1,4]dioxin-6-yl-2,2,3,3-d4)oxy)piperidin-1-yl)-2-(1-methoxypropan-2-yl)-6-methyl-[1,2,4]triazolo[4,3-a]pyrimidin-3(2H)-one] | 47 | > 10000 | 89 | 53 |  |
| [2H]C1([2H])Oc2ccc(OC3CCN(c4nc5n[nH]c(=O)n5c5c4CCC5)CC3)cc2OC1([2H])[2H] [Compound A16, 5-(4-((2,3-dihydrobenzo[b][1,4]dioxin-6-yl-2,2,3,3-d4)oxy)piperidin-1-yl)-2,6,7,8-tetrahydro-1H-cyclopenta[e][1,2,4]triazolo[4,3-a]pyrimidin-1-one] | 48 | 2860 | 84 | 4 |  |
| [2H]C1([2H])Oc2ccc(OC3CCN(c4nc5nn(C)c(=O)n5c(C5CC5)c4C)CC3)cc2OC1([2H])[2H] [Compound A12, 5-cyclopropyl-7-(4-((2,3-dihydrobenzo[b][1,4]dioxin-6-yl-2,2,3,3-d4)oxy)piperidin-1-yl)-2,6-dimethyl-[1,2,4]triazolo[4,3-a]pyrimidin-3(2H)-one] |  |  | 103 | 32 | Inactive |
| [2H]C1([2H])Oc2ccc(OC3CCN(c4nc5c(c(C)c4C)C(=O)N(C)C5)CC3)cc2OC1([2H])[2H] [Compound 12, 2-(4-((2,3-dihydrobenzo[b][1,4]dioxin-6-yl-2,2,3,3-d4)oxy)piperidin-1-yl)-3,4,6-trimethyl-6,7-dihydro-5H-pyrrolo[3,4-b]pyridin-5-one] | 54 | 2380 | 103 | 7 |  |
| [2H]C1([2H])Oc2ccc(OC3CCN(c4nc5nn(CC6CN(C)CCO6)c(=O)n5cc4C)CC3)cc2OC1([2H])[2H] (stereo not shown) [Compound A8, 7-(4-((2,3-dihydrobenzo[b][1,4]dioxin-6-yl-2,2,3,3-d4)oxy)piperidin-1-yl)-6-methyl-2-((4-methylmorpholin-2-yl)methyl)-[1,2,4]triazolo[4,3-a]pyrimidin-3(2H)-one] |  |  | 95 | 48 | Inactive |
| [2H]C([2H])([2H])n1nc2nc(N3CCC(Oc4ccc5c(c4)OC([2H])([2H])C([2H])([2H])O5)CC3)c(C)c(C3CC3)n2c1=O [Compound A13, 5-cyclopropyl-7-(4-((2,3-dihydrobenzo[b][1,4]dioxin-6-yl-2,2,3,3-d4)oxy)piperidin-1-yl)-6-methyl-2-(methyl-d3)-[1,2,4]triazolo[4,3-a]pyrimidin-3(2H)-one] |  |  | 103 | 28 | Inactive |
| [2H]C1([2H])Oc2ccc(OC3CCN(c4nc5c(cc4C)C(=O)N(C4CC4)C5)CC3)cc2OC1([2H])[2H] [Compound 6, 6-cyclopropyl-2-(4-((2,3-dihydrobenzo[b][1,4]dioxin-6-yl-2,2,3,3-d4)oxy)piperidin-1-yl)-3-methyl-6,7-dihydro-5H-pyrrolo[3,4-b]pyridin-5-one] | 64 | 867 | 78 | 9 |  |
| [2H]C1([2H])Oc2ccc(OC3CCN(c4nc5nn(CCOC)c(=O)n5cc4C)CC3)cc2OC1([2H])[2H] [Compound A3, 7-(4-((2,3-dihydrobenzo[b][1,4]dioxin-6-yl-2,2,3,3-d4)oxy)piperidin-1-yl)-2-(2-methoxyethyl)-6-methyl-[1,2,4]triazolo[4,3-a]pyrimidin-3(2H)-one] | 55 | 5410 | 79 | 8 |  |
| [2H]C1([2H])Oc2ccc(OC3CCN(c4nc5c(c(C)c4C)C(=O)NC5)CC3)cc2OC1([2H])[2H] [Compound 13, 2-(4-((2,3-dihydrobenzo[b][1,4]dioxin-6-yl-2,2,3,3-d4)oxy)piperidin-1-yl)-3,4-dimethyl-6,7-dihydro-5H-pyrrolo[3,4-b]pyridin-5-one] |  |  | 101 | 4 | inactive |
